This is an account of results in PubChem BioAssay AID652002 (Sanford-Burnham Center for Chemical Genomics, 2013).

One assay has as its target NB7+Caspase-8. The assay can be described thus: TRAIL sensitizers in caspase-8 expressing neuroblastoma cells, dose response, NB7 cells plus caspase-8, luminescence, panel (AID 652002). To be noted: NB7 neuroblastoma +caspase-8, TRAIL sensitization, luminescence viability, with TRAIL.
In assay [1] the target is Tumor necrosis factor receptor superfamily member 10B (Homo sapiens) (UniProt O14763). The description is as above. To be noted: NB7 neuroblastoma +caspase-8, TRAIL sensitization, luminescence viability; NB7+Caspase-8; with TRAIL, mean of runs.
Assay in assay [2]: as above
Conditions: NB7 neuroblastoma +caspase-8, no TRAIL, compound-alone cytotoxicity counter-screen, luminescence viability, NB7+Caspase-8. In general terms: A counterscreen serves to expose hits that act by an unwanted route or on another target.

Setting [3] is: run 1, single replicate panel EC50.
Where [4] appears, read: run 2, single replicate panel EC50.

Calls of active or inactive are those of the source. How the calls were made is not given here.

Tumor necrosis factor receptor superfamily member 10B (Homo sapiens), sequence (O14763 whole entry, looked up): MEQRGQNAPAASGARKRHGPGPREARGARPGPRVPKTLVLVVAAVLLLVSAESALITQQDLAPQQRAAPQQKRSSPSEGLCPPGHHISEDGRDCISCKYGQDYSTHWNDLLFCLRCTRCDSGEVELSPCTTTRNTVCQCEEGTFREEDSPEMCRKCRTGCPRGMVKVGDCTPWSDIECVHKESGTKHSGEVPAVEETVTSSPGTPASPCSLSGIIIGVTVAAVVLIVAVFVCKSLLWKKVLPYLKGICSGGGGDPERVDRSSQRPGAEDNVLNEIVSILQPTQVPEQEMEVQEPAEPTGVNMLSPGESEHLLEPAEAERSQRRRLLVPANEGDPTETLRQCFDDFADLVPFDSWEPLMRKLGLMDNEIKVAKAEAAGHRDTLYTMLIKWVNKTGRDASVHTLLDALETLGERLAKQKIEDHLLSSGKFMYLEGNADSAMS

What is called EC50 is the concentration at which the effect is half-maximal. Consider `O=c1cc(-c2ccccc2)nc2cc(-c3ccc(F)cc3)[nH]n12`, for which the EC50 at NB7+Caspase-8 (setting [3]) is over 12.5 µM; at NB7+Caspase-8 (setting [4]), over 12.5 µM; in assay [1], > 12.5 µM (inactive); in assay [2] (mean of runs), > 12.5 µM (inactive); in assay [2] (setting [3]) it was over 12.5 µM; in assay [2] (setting [4]), over 12.5 µM.

In the case of `CCOc1ccc(-c2cc(C(=O)N3CCC(C)CC3)c3ccccc3n2)cc1`, the half-maximal effective concentration (EC50) was over 12.5 µM on NB7+Caspase-8 (setting [3]); 11.5 µM on NB7+Caspase-8 (setting [4]); > 12.5 µM (inactive) in assay [2] (mean of runs); over 12.5 µM in assay [2] (setting [3]); over 12.5 µM in assay [2] (setting [4]). Besides, the EC50 result in assay [1] was “inactive”.

`CC(=O)c1ccc(NC(=O)Nc2cccnc2)cc1`: the EC50 on NB7+Caspase-8 (setting [3]) is over 12.5 µM; at NB7+Caspase-8 (setting [4]) it was 9.72 µM; in assay [2] (setting [3]) it was 11.4 µM; in assay [2] (setting [4]), 10.2 µM. For the same compound, the EC50 entry in assay [1] and in assay [2] (mean of runs) was “inactive” throughout.

In the case of `O/C(=C\c1ccc2ccccc2n1)c1ccc(O)cc1O`, the EC50 at NB7+Caspase-8 (setting [3]) was over 12.5 µM; at NB7+Caspase-8 (setting [4]), 7.58 µM; in assay [2] (mean of runs), > 12.5 µM (inactive); in assay [2] (setting [3]), over 12.5 µM; in assay [2] (setting [4]), over 12.5 µM. For the same compound, the EC50 result in assay [1] is “inactive”.

Turning to `CN(C(=O)COC(=O)c1cnc(Cl)c(Cl)c1)C1CCCCC1`, the half-maximal effective concentration (EC50) at NB7+Caspase-8 (setting [3]) was over 12.5 µM; on NB7+Caspase-8 (setting [4]), over 12.5 µM; in assay [1], > 12.5 µM (inactive); in assay [2] (mean of runs), > 12.5 µM (inactive); in assay [2] (setting [3]), over 12.5 µM; in assay [2] (setting [4]), over 12.5 µM.

`CCOC(=O)[C@]12Cc3cc4ccccc4cc3[C@H]1N(Cc1ccccc1)C(=O)c1cc(OC)ccc12`: the EC50 on NB7+Caspase-8 (setting [3]) was over 12.5 µM; at NB7+Caspase-8 (setting [4]), over 12.5 µM; in assay [1], > 12.5 µM (inactive); in assay [2] (mean of runs) it was > 12.5 µM (inactive); in assay [2] (setting [3]), over 12.5 µM; in assay [2] (setting [4]) it was over 12.5 µM.

For `O=C(N/N=C/c1ccc2cccnc2c1)c1ccco1`, the EC50 on NB7+Caspase-8 (setting [3]) was over 12.5 µM; on NB7+Caspase-8 (setting [4]), 6.53 µM; in assay [2] (setting [3]), 11.4 µM; in assay [2] (setting [4]), 12.1 µM. In addition, the EC50 entry in assay [1] and in assay [2] (mean of runs) was “inactive” in each case.

For `COc1cc(SC#N)ccc1N=Cc1c(C)[nH]n(-c2ccc(Cl)cc2)c1=O`, the EC50 on NB7+Caspase-8 (setting [3]) is over 12.5 µM; on NB7+Caspase-8 (setting [4]) it was over 12.5 µM; in assay [1], > 12.5 µM (inactive); in assay [2] (mean of runs), > 12.5 µM (inactive); in assay [2] (setting [3]), over 12.5 µM; in assay [2] (setting [4]), over 12.5 µM.

Consider `C#Cc1ccc(NC(=O)C2(C)CCN2C(=O)Cc2ccc(C(C)C)cc2)cc1` (stereo not given), for which the EC50 at NB7+Caspase-8 (setting [3]) is over 12.5 µM; at NB7+Caspase-8 (setting [4]), over 12.5 µM; in assay [1] it was > 12.5 µM (inactive); in assay [2] (setting [3]), over 12.5 µM; in assay [2] (setting [4]), 8.26 µM. Also, in assay [2] (mean of runs), the EC50 entry is “inactive”.

Regarding `CCCCc1nc(NCCN)c(C#N)c2c1CSC(C)(C)C2`, the EC50 on NB7+Caspase-8 (setting [3]) is over 12.5 µM; on NB7+Caspase-8 (setting [4]) it was over 12.5 µM; in assay [1], > 12.5 µM (inactive); in assay [2] (mean of runs) it was > 12.5 µM (inactive); in assay [2] (setting [3]) it was over 12.5 µM; in assay [2] (setting [4]), over 12.5 µM.

`O=C(Oc1c(CN2CCOCC2)cc(Cl)c2cccnc12)c1cccs1`: the EC50 at NB7+Caspase-8 (setting [3]) is over 12.5 µM; on NB7+Caspase-8 (setting [4]) it was 6.75 µM; in assay [2] (mean of runs), > 12.5 µM (inactive); in assay [2] (setting [3]) it was over 12.5 µM; in assay [2] (setting [4]), over 12.5 µM. Besides, the EC50 entry in assay [1] is “inactive”.

As for `CC(C)C[C@H](NC(=O)c1nc[nH]c1C(=O)N[C@@H](CCCCNC(=O)OC(C)(C)C)C(=O)OC(C)(C)C)C(=O)OCc1ccccc1`, the EC50 was over 12.5 µM on NB7+Caspase-8 (setting [3]); over 12.5 µM on NB7+Caspase-8 (setting [4]); > 12.5 µM (inactive) in assay [1]; > 12.5 µM (inactive) in assay [2] (mean of runs); over 12.5 µM in assay [2] (setting [3]); over 12.5 µM in assay [2] (setting [4]).

For `O=C(NNC(=O)c1cc(OCC(F)(F)F)ccc1OCC(F)(F)F)c1ccc(Cl)c(Cl)c1`, the half-maximal effective concentration (EC50) on NB7+Caspase-8 (setting [3]) is over 12.5 µM; at NB7+Caspase-8 (setting [4]), over 12.5 µM; in assay [1], > 12.5 µM (inactive); in assay [2] (mean of runs), > 12.5 µM (inactive); in assay [2] (setting [3]), over 12.5 µM; in assay [2] (setting [4]), over 12.5 µM.

Consider `CCCCCCCn1c2c(c(=N)c3ccccc31)CCC2`, for which the EC50 at NB7+Caspase-8 (setting [3]) is over 12.5 µM; on NB7+Caspase-8 (setting [4]), 4.65 µM; in assay [2] (mean of runs), > 12.5 µM (inactive); in assay [2] (setting [3]), over 12.5 µM; in assay [2] (setting [4]), over 12.5 µM. The EC50 entry in assay [1] is “inactive”.

As to `O=C1CCCc2nc(N3CCc4ccccc43)ncc21`, the EC50 is over 12.5 µM on NB7+Caspase-8 (setting [3]); over 12.5 µM on NB7+Caspase-8 (setting [4]); > 12.5 µM (inactive) in assay [1]; > 12.5 µM (inactive) in assay [2] (mean of runs); over 12.5 µM in assay [2] (setting [3]); over 12.5 µM in assay [2] (setting [4]).
